Measurements: the CheMixHub viscosity set

Test: xn = mol fraction of the nth substance listed

CC(C)CC(C)(C)C + CCCCCCCC
viscosity [mPa·s]
Conditions	x1 = 0.2	x1 = 0.4	x1 = 0.5	x1 = 0.6	x1 = 0.8
293.15 K, 101 kPa	0.528	0.519	–	0.51	0.503
298.2 K, 100 kPa	–	–	0.4882	–	–
313.15 K, 101 kPa	0.421	0.415	–	0.408	0.403

CCCCCCO + CCCCCCCC
viscosity [mPa·s]
Conditions	293.15 K	298.15 K	303.15 K	308.15 K	313.15 K
100 kPa, x2 = 0.0423	4.68	4.014	3.464	3.004	2.618
100 kPa, x2 = 0.0824	4.117	3.546	3.072	2.675	2.34
100 kPa, x2 = 0.1636	3.198	2.775	2.423	2.126	1.876
100 kPa, x2 = 0.2691	2.319	2.037	1.8	1.599	1.426
100 kPa, x2 = 0.3407	1.877	1.663	1.482	1.327	1.193
100 kPa, x2 = 0.3897	1.634	1.457	1.306	1.176	1.064
100 kPa, x2 = 0.4731	1.303	1.176	1.065	0.969	0.884
100 kPa, x2 = 0.5241	1.148	1.043	0.95	0.869	0.797
100 kPa, x2 = 0.5779	1.011	0.925	0.848	0.779	0.718
100 kPa, x2 = 0.6611	0.851	0.785	0.725	0.671	0.622
100 kPa, x2 = 0.753	0.719	0.667	0.62	0.577	0.537
100 kPa, x2 = 0.8903	0.582	0.543	0.508	0.475	0.445
100 kPa, x2 = 0.9572	0.533	0.502	0.468	0.438	0.411
100 kPa, x2 = 0.9715	0.524	0.491	0.461	0.432	0.406
101.33 kPa, x2 = 0.051	–	4.054	–	–	–
101.33 kPa, x2 = 0.1118	–	3.29	–	–	–
101.33 kPa, x2 = 0.1835	–	2.593	–	–	–
101.33 kPa, x2 = 0.3569	–	1.552	–	–	–
101.33 kPa, x2 = 0.5094	–	1.074	–	–	–
101.33 kPa, x2 = 0.5642	–	0.955	–	–	–
101.33 kPa, x2 = 0.6167	–	0.857	–	–	–
101.33 kPa, x2 = 0.6701	–	0.77	–	–	–
101.33 kPa, x2 = 0.7288	–	0.686	–	–	–
101.33 kPa, x2 = 0.8387	–	0.566	–	–	–
101.33 kPa, x2 = 0.937	–	0.511	–	–	–

O=C1CCCCC1 + CCCCCCCC
viscosity [mPa·s]
Conditions	298.15 K	303.15 K	308.15 K
101 kPa, x2 = 0.0833	1.59	–	–
101 kPa, x2 = 0.1727	1.31	–	–
101 kPa, x2 = 0.3177	1.023	–	–
101 kPa, x2 = 0.4682	0.829	–	–
101 kPa, x2 = 0.6244	0.693	–	–
101 kPa, x2 = 0.7825	0.602	–	–
101 kPa, x2 = 0.8935	0.55	–	–
101.33 kPa, x1 = 0.0981	0.537	0.505	0.479
101.33 kPa, x1 = 0.2053	0.583	0.547	0.516
101.33 kPa, x1 = 0.3022	0.635	0.595	0.559
101.33 kPa, x1 = 0.4042	0.706	0.658	0.618
101.33 kPa, x1 = 0.5032	0.787	0.733	0.686
101.33 kPa, x1 = 0.603	0.895	0.831	0.774
101.33 kPa, x1 = 0.7025	1.039	0.96	0.894
101.33 kPa, x1 = 0.8021	1.264	1.165	1.054
101.33 kPa, x1 = 0.8984	1.508	1.38	1.271

CCC12CC3CC(CC(C3)C1)C2 + CCCCCCCCC
viscosity [mPa·s], 100 kPa
Conditions	x1 = 0.0998	x1 = 0.2013	x1 = 0.3004	x1 = 0.4014	x1 = 0.5002	x1 = 0.5999	x1 = 0.7002	x1 = 0.7995	x1 = 0.9008
293.15 K	1.043	1.335	1.642	1.902	2.234	2.701	3.287	4.086	5.133
298.15 K	0.972	1.243	1.492	1.728	2.019	2.384	2.881	3.537	4.44
303.15 K	0.921	1.141	1.369	1.577	1.836	2.144	2.581	3.158	3.898
308.15 K	0.836	1.053	1.261	1.448	1.684	1.957	2.34	2.833	3.47
313.15 K	0.786	0.985	1.166	1.334	1.547	1.792	2.128	2.556	3.114
318.15 K	0.729	0.901	1.073	1.232	1.416	1.644	1.94	2.32	2.815
323.15 K	0.696	0.85	1.006	1.144	1.317	1.515	1.782	2.115	2.547

O=C1CCCCC1 + CCCCCCCCC
viscosity [mPa·s], 101.33 kPa
Conditions	x1 = 0.0999	x1 = 0.1981	x1 = 0.3012	x1 = 0.4032	x1 = 0.4987	x1 = 0.6007	x1 = 0.6942	x1 = 0.7981	x1 = 0.9006
298.15 K	0.683	0.726	0.772	0.833	0.909	1.022	1.134	1.321	1.544
303.15 K	0.639	0.675	0.718	0.775	0.842	0.936	1.043	1.21	1.41
308.15 K	0.6	0.632	0.672	0.723	0.784	0.869	0.967	1.116	1.294

CC(C)CC(C)(C)C + CCCCCCCCCC
298.15 K, 101 kPa
Conditions	viscosity [mPa·s]
x1 = 0.08287	0.7981
x1 = 0.2249	0.7573
x1 = 0.3493	0.7059
x1 = 0.4309	0.6689
x1 = 0.5526	0.6214
x1 = 0.6412	0.5981
x1 = 0.735	0.5645
x1 = 0.8255	0.5303
x1 = 0.8936	0.512
x1 = 0.9357	0.4966

O=C1CCCCC1 + CCCCCCCCCC
viscosity [mPa·s], 101.33 kPa
Conditions	x1 = 0.1023	x1 = 0.2073	x1 = 0.3011	x1 = 0.4017	x1 = 0.5042	x1 = 0.6034	x1 = 0.703	x1 = 0.8	x1 = 0.9018
298.15 K	0.87	0.902	0.937	0.991	1.063	1.143	1.256	1.439	1.625
303.15 K	0.806	0.836	0.868	0.916	0.984	1.053	1.152	1.316	1.48
308.15 K	0.752	0.779	0.812	0.851	0.909	0.973	1.064	1.212	1.357

CCC12CC3CC(CC(C3)C1)C2 + CCCCCCCCCCC
viscosity [mPa·s], 100 kPa
Conditions	x1 = 0.1012	x1 = 0.2042	x1 = 0.3018	x1 = 0.4017	x1 = 0.5014	x1 = 0.6059	x1 = 0.7013	x1 = 0.8052	x1 = 0.8999
293.15 K	1.348	1.47	1.631	1.86	2.179	2.592	3.18	4.01	5.036
298.15 K	1.203	1.334	1.489	1.692	1.93	2.302	2.77	3.47	4.339
303.15 K	1.108	1.225	1.366	1.546	1.764	2.091	2.514	3.129	3.854
308.15 K	1.025	1.133	1.271	1.418	1.601	1.883	2.235	2.77	3.404
313.15 K	0.953	1.049	1.173	1.311	1.472	1.728	2.039	2.509	3.078
318.15 K	0.887	0.983	1.092	1.22	1.377	1.6	1.882	2.284	2.781
323.15 K	0.829	0.92	1.013	1.135	1.272	1.472	1.723	2.094	2.512

CC(C)CC(C)(C)C + CCCCCCCCCCCC
viscosity [mPa·s]
Conditions	298.15 K	323.14 K
100 kPa, x1 = 0.5	0.8601	0.6179
101 kPa, x1 = 0.0923	1.236	–
101 kPa, x1 = 0.1569	1.169	–
101 kPa, x1 = 0.2503	1.085	–
101 kPa, x1 = 0.3747	0.9632	–
101 kPa, x1 = 0.4786	0.8653	–
101 kPa, x1 = 0.5889	0.7696	–
101 kPa, x1 = 0.6762	0.7013	–
101 kPa, x1 = 0.7597	0.6346	–
101 kPa, x1 = 0.8459	0.5724	–
101 kPa, x1 = 0.9062	0.5377	–
101 kPa, x1 = 0.9457	0.5099	–
101 kPa, x1 = 0.9733	0.4948	–
